According to patent publication US20250197409A1, “BIFUNCTIONAL COMPOUND AND PHARMACEUTICAL COMPOSITION COMPRISING THE BIFUNCTIONAL COMPOUND, AND METHOD FOR TREATING ANDROGEN RECEPTOR RELATED DISEASE BY USING THE SAME” (ANHORN MEDICINES CO., LTD., priority 2022, published 2025):
Where two headings read alike, the source gives them in different places.

Biological target: T1, androgen receptor (Homo sapiens, UniProt P10275, T878A)
T1 construct: host or cells: LNCaP.FGC
Experiment: Androgen receptor degradation assay using Western blot analysis
Type: cell-based
Method: Cells not treated with any of the above-mentioned compounds are used as a negative control.
The internal loading control GAPDH was detected using a mouse monoclonal antibody (1:5000) (GTX627408, GeneTex International Corp., HsinChu City, Taiwan R.O.C.) and a goat anti-mouse HRP-conjugated secondary antibody (1:5000 dilution) (C04001, Croyez Bioscience Co., Ltd., Taipei City, Taiwan R.O.C.).
AR remaining percentage was determined by the intensity difference of AR signals (each was normalized by the corresponding internal loading control GAPDH) between the protein samples from the untreated cells (100%) and those from the treated cells. “Cpd. #” indicates the compound number hereinabove.
In addition, several compounds were selected to prepare a treatment stock solutions at 100 nM in RPMI medium. The treatment stock solutions were separately serially diluted (10×) with RPMI medium for treating LNCaP.FGC cells seeded with 2×10^5 cells per well in 24-well tissue culture plates. A calibration curve was determined by the serial diluted samples for each compound, and the concentration needed for 50% AR degradation (AR DC50) for each compound was calculated.

[1] = 24 h, LNCaP.FGC cells, 100 nM, 24 hr, normalized to GAPDH, untreated cells = 100%; read-out: Androgen Receptor Remaining (%)
[2] = LNCaP.FGC cells, serial 10x dilutions from 100 nM; read-out: AR DC50 (concentration needed for 50% AR degradation)
[3] = read-out: AR DC50 (concentration needed for 50% AR degradation); LNCaP.FGC cells, serial 10x dilutions from 100 nM
[4] = 24 h, read-out: Androgen Receptor Remaining (%), LNCaP.FGC cells, 100 nM, 24 hr, normalized to GAPDH, untreated cells = 100%

T1 sequence (P10275 whole entry T878A): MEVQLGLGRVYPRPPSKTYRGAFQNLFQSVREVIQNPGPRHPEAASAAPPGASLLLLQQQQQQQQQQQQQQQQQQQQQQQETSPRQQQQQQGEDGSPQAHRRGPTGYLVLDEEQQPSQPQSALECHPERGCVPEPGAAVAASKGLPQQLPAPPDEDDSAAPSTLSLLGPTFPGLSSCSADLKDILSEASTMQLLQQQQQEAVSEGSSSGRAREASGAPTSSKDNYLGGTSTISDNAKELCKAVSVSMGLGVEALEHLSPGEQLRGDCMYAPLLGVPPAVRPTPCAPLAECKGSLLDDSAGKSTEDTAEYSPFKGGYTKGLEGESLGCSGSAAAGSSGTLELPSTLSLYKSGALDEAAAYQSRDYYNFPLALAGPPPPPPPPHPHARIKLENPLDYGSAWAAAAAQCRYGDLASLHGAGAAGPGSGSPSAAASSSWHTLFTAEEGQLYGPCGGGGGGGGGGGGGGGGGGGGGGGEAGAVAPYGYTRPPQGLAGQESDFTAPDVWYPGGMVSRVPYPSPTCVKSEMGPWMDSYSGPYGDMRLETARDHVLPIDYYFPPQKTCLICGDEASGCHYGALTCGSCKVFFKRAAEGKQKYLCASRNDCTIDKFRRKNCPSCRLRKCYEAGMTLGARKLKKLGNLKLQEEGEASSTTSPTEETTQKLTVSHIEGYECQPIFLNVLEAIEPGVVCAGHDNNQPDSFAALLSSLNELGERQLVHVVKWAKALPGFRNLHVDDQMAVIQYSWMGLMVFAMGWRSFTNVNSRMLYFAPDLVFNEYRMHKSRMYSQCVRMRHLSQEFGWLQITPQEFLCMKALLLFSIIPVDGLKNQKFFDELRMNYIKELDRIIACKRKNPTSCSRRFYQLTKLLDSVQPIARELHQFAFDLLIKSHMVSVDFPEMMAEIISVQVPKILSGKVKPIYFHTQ
T1 sequence (Q96SW2 whole entry partner): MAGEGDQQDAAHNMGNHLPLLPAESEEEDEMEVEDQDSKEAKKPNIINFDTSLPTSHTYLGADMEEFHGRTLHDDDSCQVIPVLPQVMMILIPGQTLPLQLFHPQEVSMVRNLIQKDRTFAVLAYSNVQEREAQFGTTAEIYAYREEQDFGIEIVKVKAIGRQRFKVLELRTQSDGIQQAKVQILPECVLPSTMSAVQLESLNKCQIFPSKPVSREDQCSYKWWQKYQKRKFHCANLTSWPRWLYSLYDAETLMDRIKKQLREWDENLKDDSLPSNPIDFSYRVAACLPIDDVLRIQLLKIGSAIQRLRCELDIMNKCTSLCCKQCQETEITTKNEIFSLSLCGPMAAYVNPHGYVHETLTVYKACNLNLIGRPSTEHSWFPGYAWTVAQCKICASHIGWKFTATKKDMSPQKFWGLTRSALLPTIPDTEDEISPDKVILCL

| Structure (SMILES) | DC50 [3] | remaining activity at 0.1 µM [4] | other results |
| --- | --- | --- | --- |
| Cn1c2c(c3ccc(OCCCN4CCN(c5ccc(C(=O)N[C@H]6C(C)(C)[C@H](Oc7ccc(C#N)c(Cl)c7)C6(C)C)cn5)CC4)cc31)C(=O)N(C1CCC(=O)NC1=O)C2=O (some centres unmarked) [Compound 8] |  |  | remaining activity at 0.1 µM [1]: 22%; DC50 [2]: 10 to 25 nM |
| CCn1c2c(c3ccc(OCCCCOC4CCN(c5ccc(C(=O)N[C@H]6CC[C@H](Oc7ccc(C#N)c(Cl)c7)CC6)nn5)CC4)cc31)C(=O)N(C1CCC(=O)NC1=O)C2=O (some centres unmarked) [Compound 185] | 25 to 100 nM |  |  |
| Cn1c2c(c3ccc(OCCCCOC4CCN(c5ccc(C(=O)N[C@H]6CC[C@H](Oc7ccc(C#N)c(Cl)c7)CC6)nn5)CC4)cc31)C(=O)N(C1CCC(=O)NC1=O)C2=O (some centres unmarked) [Compound 187] |  |  | DC50 [2]: 25 to 100 nM |
| Cn1c2c(c3ccc(OCCCN4CCN(c5ccc(C(=O)N[C@H]6CC[C@H](Oc7ccc(C#N)c(Cl)c7)CC6)nn5)CC4)cc31)C(=O)N(C1CCC(=O)NC1=O)C2=O (some centres unmarked) [Compound 207] |  |  | DC50 [2]: < 10 nM |
| CCn1c2c(c3cc(OCCN4CCC(C#Cc5ccc(C(=O)NC6C(C)(C)C(Oc7ccc(C#N)c(Cl)c7)C6(C)C)cc5)CC4)ccc31)C(=O)N(C1CCC(=O)NC1=O)C2=O (centres unmarked) [Compound 139] | 25 to 100 nM | 52% |  |
| CCn1c2c(c3ccc(OCCOC4CCC5(CC4)CN(c4ccc(C(=O)N[C@H]6CC[C@H](Oc7ccc(C#N)c(Cl)c7)CC6)nn4)C5)cc31)C(=O)N(C1CCC(=O)NC1=O)C2=O (some centres unmarked) [Compound 152] | 25 to 100 nM | 45% |  |
| CCn1c2c(c3ccc(OCC(=O)N4CCCN(c5ccc(C(=O)N[C@H]6CC[C@H](N(C)c7ccc(C#N)c(Cl)c7)CC6)nn5)CC4)cc31)C(=O)N(C1CCC(=O)NC1=O)C2=O (some centres unmarked) [Compound 131] |  | 51% |  |
| Cn1c2c(c3ccc(OCCN4CCC5(CC4)CCN(c4ccc(C(=O)N[C@H]6CC[C@H](Oc7ccc(C#N)c(Cl)c7)CC6)nn4)CC5)cc31)C(=O)N(C1CCC(=O)NC1=O)C2=O (some centres unmarked) [Compound 195] |  |  | DC50 [2]: 10 to 25 nM |
| CCn1c2c(c3ccc(OCCN4CCN(c5ccc(C(=O)N[C@H]6C(C)(C)[C@H](Oc7ccc(C#N)c(Cl)c7)C6(C)C)cc5)CC4)cc31)C(=O)N(C1CCC(=O)NC1=O)C2=O (some centres unmarked) [Compound 30] |  | 56% |  |
| CCn1c2c(c3ccc(OCC(=O)N4CCN(c5ccc(C(=O)N[C@H]6CC[C@H](N(C)c7ccc(C#N)c(Cl)c7)CC6)nn5)CC4)cc31)C(=O)N(C1CCC(=O)N(CO)C1=O)C2=O (some centres unmarked) [Compound 124] |  | 57% |  |
| Cn1c2c(c3ccc(OCCCN4CCN(c5ccc(C(=O)N[C@H]6C(C)(C)[C@H](Oc7ccc(C#N)c(Cl)c7)C6(C)C)cc5)CC4)cc31)C(=O)N(C1CCC(=O)NC1=O)C2=O (some centres unmarked) [Compound 12] |  |  | remaining activity at 0.1 µM [1]: 42%; DC50 [2]: 25 to 100 nM |
| Cn1c2c(c3ccc(OCCN4CCN(c5ccc(C(=O)N[C@H]6C(C)(C)[C@H](Oc7ccc(C#N)c(Cl)c7)C6(C)C)cn5)CC4)cc31)C(=O)N(C1CCC(=O)NC1=O)C2=O (some centres unmarked) [Compound 6] |  |  | remaining activity at 0.1 µM [1]: 31%; DC50 [2]: 25 to 100 nM |
| CCn1c2c(c3ccc(OCCN4CCC5(CC4)CCN(c4ccc(C(=O)N[C@H]6CC[C@H](Oc7ccc(C#N)c(Cl)c7)CC6)nn4)CC5)cc31)C(=O)N(C1CCC(=O)NC1=O)C2=O (some centres unmarked) [Compound 182] | < 10 nM |  |  |
| CCn1c2c(c3ccc(OCCCN4CCN(c5ccc(C(=O)N[C@H]6CC[C@H](Oc7ccc(C#N)c(Cl)c7)CC6)nn5)CC4)cc31)C(=O)N(C1CCC(=O)NC1=O)C2=O (some centres unmarked) [Compound 205] | < 10 nM |  |  |
| CCn1c2c(c3ccc(OCCN4[C@H](C)CN(c5ccc(C(=O)N[C@H]6CC[C@H](Oc7ccc(C#N)c(Cl)c7)CC6)nn5)C[C@@H]4C)cc31)C(=O)N(C1CCC(=O)NC1=O)C2=O (some centres unmarked) [Compound 77] |  | 92% |  |
| CCn1c2c(c3cc(OCCN4CCN(c5ccc(C(=O)N[C@H]6C(C)(C)[C@H](Oc7ccc(C#N)c(Cl)c7)C6(C)C)cc5)CC4)ccc31)C(=O)N(C1CCC(=O)NC1=O)C2=O (some centres unmarked) [Compound 4] |  | 66% |  |
| CCn1c2c(c3ccc(OCCN4CCC5(CC4)CN(c4ccc(C(=O)N[C@H]6CC[C@H](Oc7ccc(C#N)c(Cl)c7)CC6)nn4)C5)cc31)C(=O)N(C1CCC(=O)NC1=O)C2=O (some centres unmarked) [Compound 81] | < 10 nM | 9% |  |
| Cn1c2c(c3ccc(NC(=O)CN4CCN(c5ccc(C(=O)N[C@H]6C(C)(C)[C@H](Oc7ccc(C#N)c(Cl)c7)C6(C)C)cn5)CC4)cc31)C(=O)N(C1CCC(=O)NC1=O)C2=O (some centres unmarked) [Compound 42] |  |  | remaining activity at 0.1 µM [1]: 30%; DC50 [2]: 10 to 25 nM |

| Structure (SMILES) | DC50 [3] | remaining activity at 0.1 µM [4] | other results |
| --- | --- | --- | --- |
| Cn1c2c(c3ccc(OCCN4CCN(c5ccc(C(=O)N[C@H]6CC[C@H](Oc7ccc(C#N)c(Cl)c7)CC6)nn5)CC4)cc31)C(=O)N(C1CCC(=O)NC1=O)C2=O (some centres unmarked) [Compound 3] |  |  | remaining activity at 0.1 µM [1]: 32%; DC50 [2]: 25 to 100 nM |
| Cn1c2c(c3cccc(OCCCN4CCN(c5ccc(C(=O)N[C@H]6C(C)(C)[C@H](Oc7ccc(C#N)c(Cl)c7)C6(C)C)cc5)CC4)c31)C(=O)N(C1CCC(=O)NC1=O)C2=O (some centres unmarked) [Compound 25] |  |  | remaining activity at 0.1 µM [1]: 80% |
| Cn1c2c(c3ccc(OCCCN4CCN(c5ccc(C(=O)N[C@H]6C(C)(C)[C@H](Oc7ccc(C#N)c(Cl)c7)C6(C)C)nn5)CC4)cc31)C(=O)N(C1CCC(=O)NC1=O)C2=O (some centres unmarked) [Compound 40] |  |  | remaining activity at 0.1 µM [1]: 29%; DC50 [2]: > 100 nM |
| Cn1c2c(c3ccc(OCCN4CCC5(CC4)CCN(c4ccc(C(=O)N[C@H]6CC[C@H](N(C)c7ccc(C#N)c(Cl)c7)CC6)nn4)CC5)cc31)C(=O)N(C1CCC(=O)NC1=O)C2=O (some centres unmarked) [Compound 199] | 10 to 25 nM |  |  |
| C[Si](C)(C)CCOCn1c2c(c3ccc(OCCCN4CCN(c5ccc(C(=O)N[C@H]6CC[C@H](Oc7ccc(C#N)c(Cl)c7)CC6)nn5)CC4)cc31)C(=O)N(C1CCC(=O)NC1=O)C2=O (some centres unmarked) [Compound 84] |  | 62% |  |
| CCn1c2c(c3ccc(OCC(=O)N4CC5(CCN(c6ccc(C(=O)N[C@H]7CC[C@H](N(C)c8ccc(C#N)c(Cl)c8)CC7)nn6)C5)C4)cc31)C(=O)N(C1CCC(=O)NC1=O)C2=O (some centres unmarked) [Compound 146] |  | 62% |  |
| CCn1c2c(c3ccc(OCCN4CCC5(CCN(c6ccc(C(=O)N[C@H]7CC[C@H](Oc8ccc(C#N)c(Cl)c8)CC7)nn6)C5)C4)cc31)C(=O)N(C1CCC(=O)NC1=O)C2=O (some centres unmarked) [Compound 133] | 10 to 25 nM | 1% |  |
| CCn1c2c(c3ccc(OCCN4CCN(c5cnc(C(=O)N[C@H]6CC[C@H](Oc7ccc(C#N)c(Cl)c7)CC6)cn5)CC4)cc31)C(=O)N(C1CCC(=O)NC1=O)C2=O (some centres unmarked) [Compound 62] |  | 65% |  |
| CCn1c2c(c3ccc(OCCCN4CCN(c5cnc(C(=O)N[C@H]6CC[C@H](Oc7ccc(C#N)c(Cl)c7)CC6)cn5)CC4)cc31)C(=O)N(C1CCC(=O)NC1=O)C2=O (some centres unmarked) [Compound 61] |  | 96% |  |
| CCn1c2c(c3ccc(OCCN4CCC(C5CCN(c6ccc(C(=O)N[C@H]7CC[C@H](Oc8ccc(C#N)c(Cl)c8)CC7)nn6)CC5)CC4)cc31)C(=O)N(C1CCC(=O)NC1=O)C2=O (some centres unmarked) [Compound 158] | 10 to 25 nM | 13% |  |
| CCn1c2c(c3ccc(OCCCN4C5CCC4CN(c4ccc(C(=O)N[C@H]6CC[C@H](Oc7ccc(C#N)c(Cl)c7)CC6)nn4)C5)cc31)C(=O)N(C1CCC(=O)NC1=O)C2=O (some centres unmarked) [Compound 47] | 10 to 25 nM | 19% |  |
| CCn1c2c(c3ccc(OCCCN4CCC(c5ncc(C(=O)N[C@H]6CC[C@H](Oc7ccc(C#N)c(Cl)c7)CC6)cn5)CC4)cc31)C(=O)N(C1CCC(=O)NC1=O)C2=O (some centres unmarked) [Compound 38] | 25 to 100 nM |  |  |
| CCn1c2c(c3ccc(OCCCN4CCN(c5ccc(C(=O)N[C@H]6CC[C@H](Oc7ccc(C#N)c(Cl)c7)CC6)nn5)CC4)cc31)C(=O)N([C@H]1CCC(=O)NC1=O)C2=O [Compound 63] | 10 to 25 nM |  |  |
| CCn1c2c(c3ccc(OCCCN4CCC5(CC4)CN(c4ccc(C(=O)N[C@H]6CC[C@H](N(C)c7ccc(C#N)c(Cl)c7)CC6)nn4)C5)cc31)C(=O)N(C1CCC(=O)NC1=O)C2=O (some centres unmarked) [Compound 107] |  | 15% |  |
| CCn1c2c(c3ccc(OCCN4CCN(c5ccc(C(=O)N[C@H]6CC[C@H](N(C)c7ccc(C#N)c(Cl)c7)CC6)nn5)CC4)cc31)C(=O)N(C1CCC(=O)NC1=O)C2=O (some centres unmarked) [Compound 79] |  | 60% |  |
| CCn1c2c(c3ccc(OC4CCN(CC5CCN(c6ccc(C(=O)N[C@H]7C(C)(C)[C@@H](Oc8ccc(C#N)c(Cl)c8)C7(C)C)nn6)CC5)CC4)cc31)C(=O)N(C1CCC(=O)NC1=O)C2=O (some centres unmarked) [Compound 213] | 10 to 25 nM |  |  |
| Cn1c2c(c3ccc(OC4CCN(CC5CCN(c6ccc(C(=O)N[C@H]7CC[C@H](Oc8ccc(C#N)c(Cl)c8)CC7)nn6)CC5)CC4)cc31)C(=O)N(C1CCC(=O)NC1=O)C2=O (some centres unmarked) [Compound 215] |  |  | DC50 [2]: 10 to 25 nM |
